# Measured values published in patent US6617438B1, “Oligoribonucleotides with enzymatic activity” (Sirna Therapeutics, Inc., priority 1997, dated 2003).
# Several values for one entry are separate records, joined by “and”; a condition that tells them apart may be missing. Identical values can stand only once. Like-named read-outs stand apart in the source and are kept apart here. Marks after values point to notes of the source that are not given here.
# How the values were obtained:
# [1] = molecular target: T1, Y639F mutant T7 polymerase (Escherichia phage T7, UniProt P00573, Y639F); type: biochemical, bacteriophage T7
# T1 sequence (P00573 whole entry Y639F, looked up): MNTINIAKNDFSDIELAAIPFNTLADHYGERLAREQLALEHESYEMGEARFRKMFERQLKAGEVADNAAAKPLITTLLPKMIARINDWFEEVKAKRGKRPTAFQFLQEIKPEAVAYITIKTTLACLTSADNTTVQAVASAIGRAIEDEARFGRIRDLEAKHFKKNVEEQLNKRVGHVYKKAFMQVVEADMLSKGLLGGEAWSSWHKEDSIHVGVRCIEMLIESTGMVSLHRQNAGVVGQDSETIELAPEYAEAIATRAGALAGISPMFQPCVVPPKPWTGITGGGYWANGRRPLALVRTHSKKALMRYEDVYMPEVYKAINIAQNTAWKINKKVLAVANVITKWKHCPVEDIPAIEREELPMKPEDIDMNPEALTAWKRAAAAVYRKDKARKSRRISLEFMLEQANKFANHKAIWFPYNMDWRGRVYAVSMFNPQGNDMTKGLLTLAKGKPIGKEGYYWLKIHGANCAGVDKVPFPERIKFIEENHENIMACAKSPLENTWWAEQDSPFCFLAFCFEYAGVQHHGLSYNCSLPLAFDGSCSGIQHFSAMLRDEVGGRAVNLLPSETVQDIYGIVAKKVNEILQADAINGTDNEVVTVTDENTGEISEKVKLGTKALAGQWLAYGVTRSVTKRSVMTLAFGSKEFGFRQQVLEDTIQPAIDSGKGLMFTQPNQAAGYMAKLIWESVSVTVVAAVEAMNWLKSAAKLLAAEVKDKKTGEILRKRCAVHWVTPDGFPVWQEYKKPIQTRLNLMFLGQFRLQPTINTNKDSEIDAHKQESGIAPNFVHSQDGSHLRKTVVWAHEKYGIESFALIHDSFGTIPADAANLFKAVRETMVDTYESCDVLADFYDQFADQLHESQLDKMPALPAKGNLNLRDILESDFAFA
# [2] = molecular target: T1, Y639F mutant T7 polymerase; type: biochemical, bacteriophage T7; remark: listed apart in the source
# [3] = molecular target: T2, Bacteriophage T7 RNA polymerase (wild type) (Escherichia phage T7, UniProt P00573); assay: biochemical; type: biochemical; settings: for activity at 2000 µM: read-out: % ribo control
# T2 construct: purchased Boehringer Mannheim
# T2 sequence (P00573 whole entry): as the sequence (P00573 whole entry Y639F, looked up) above, with F639Y counted along it
# Method: Bacteriophage T7 RNA polymerase was purchased from Boehringer Mannheim at 0.4 U/μL concentration. Applicant used the commercial buffer supplied with the enzyme and 0.2 μCi alpha-^32P NTP in a 50 μL reaction with nucleotides triphosphates at 2 mM each. The template was a double-stranded PCR fragment, which was used in previous screens. Reactions were carried out at 37° C. for 1 hour. Ten μL of the sample was run on a 7.5% analytical PAGE and bands were quantitated using a Phosphorlmager.
# BT-474 xenografts = settings: combination study, dose not given; cited from earlier work
# [4] = high-risk patients; cited from earlier work
# [5] = together with 2′-his-UTP and 2′-amino-CTP, same buffer (condition 9)
# [6] = together with rUTP and rCTP, same buffer (condition 9)
# [7] = wild type T7 polymerase, commercial buffer, 37° C., 1 hour, label GTP
# [8] = COND# 1: 20 mM MgCl2, 10% methanol, 1 mM LiCl, no PEG, 25° C.
# [9] = COND# 2: 20 mM MgCl2, 10% methanol, 1 mM LiCl, 4% PEG, 25° C.
# [10] = COND# 3: 12 mM MgCl2, 4% PEG, 25° C.
# [11] = COND# 4: 12 mM MgCl2, 10% methanol, 4% PEG, 25° C.
# [12] = COND# 5: 12 mM MgCl2, 1 mM LiCl, 4% PEG, 25° C.
# [13] = COND# 6: 12 mM MgCl2, 10% methanol, 1 mM LiCl, 4% PEG, 25° C.
# [14] = COND# 7: 20 mM MgCl2, 10% methanol, 1 mM LiCl, no PEG, 37° C.
# [15] = COND# 8: 20 mM MgCl2, 10% methanol, 1 mM LiCl, 4% PEG, 37° C.
# [16] = COND# 9: 12 mM MgCl2, 4% PEG, 37° C.
# [17] = COND# 10: 12 mM MgCl2, 10% methanol, 4% PEG, 37° C.
# [18] = COND# 11: 12 mM MgCl2, 1 mM LiCl, 4% PEG, 37° C.
# [19] = COND# 12: 12 mM MgCl2, 10% methanol, 1 mM LiCl, 4% PEG, 37° C.
# [20] = together with 2′-his-UTP, rATP and rGTP, condition number 9
# [21] = together with rUTP, condition number 9
# [22] = wild type T7 polymerase, commercial buffer, 37° C., 1 hour, label ATP
molecule,measurement,setting,value
Nc1ncnc2c1ncn2[C@@H]1O[C@H](COP(=O)(O)OP(=O)(O)OP(=O)(O)O)[C@@H](O)[C@H]1O [ATP],percentage of incorporation compared to the all-RNA control,[1]; [5],15.7%
same,percentage of incorporation compared to the all-RNA control,[1]; [6],100%
COC1C(O)[C@@H](CO)O[C@H]1n1cc(CCCN)c(=O)[nH]c1=O (stereo partly drawn) [5-(3-aminopropyl)-2′-O-methyl uridine],"full-length transcript, percent compared to all-rNTP control",[2],4% and 10%
same,activity at 2000 µM,[3]; [7],0%
2′-F—GTP,% ribo control,[3],4%
"CSCO[C@@H]1[C@H](O)[C@@H](CO)O[C@H]1n1cnc2c(N)ncnc21 [2′-O—MTM—ATP, 2′-O-methylthiomethyl adenosine]","full-length transcript, percent compared to all-rNTP control",[2],0% and 1%
same,activity at 2000 µM,[3]; [7],1%
"COC1C(O)[C@@H](CO)O[C@H]1n1cnc2c(N)nc(N)nc21 (stereo partly drawn) [2′-O—Me—DAP, 2′-O-methyl-2,6-diaminopurine riboside]","full-length transcript, percent compared to all-rNTP control",[2],4% and 5% and 3%
same,percentage of incorporation compared to the all-RNA control,[1],1.9% and 5.7%
2′-deoxy-2′-amino-CTP [2′-NH2—CTP],"full-length transcript, percent compared to all-rNTP control",[2]; [8],11%
same,"full-length transcript, percent compared to all-rNTP control",[2]; [9],37%
same,"full-length transcript, percent compared to all-rNTP control",[2]; [10],45%
same,"full-length transcript, percent compared to all-rNTP control",[2]; [11],64%
same,"full-length transcript, percent compared to all-rNTP control",[2]; [12],25%
same,"full-length transcript, percent compared to all-rNTP control",[2]; [13],70%
same,"full-length transcript, percent compared to all-rNTP control",[2]; [14],26%
same,"full-length transcript, percent compared to all-rNTP control",[2]; [15],54%
same,"full-length transcript, percent compared to all-rNTP control",[2]; [16],292%
same,"full-length transcript, percent compared to all-rNTP control",[2]; [17],264%
same,"full-length transcript, percent compared to all-rNTP control",[2]; [18],109%
same,"full-length transcript, percent compared to all-rNTP control",[2]; [19],244%
same,percentage of incorporation compared to the all-RNA control,[1]; [20],9.5* %
same,percentage of incorporation compared to the all-RNA control,[1]; [21],232.7%
same,% ribo control,[3]; [7],59%
Nc1ncnc2c1ncn2[C@H]1C[C@H](O)[C@@H](COP(=O)(O)OP(=O)(O)OP(=O)(O)O)O1 [2′-dATP],"full-length transcript, percent compared to all-rNTP control",[2]; [8],9%
same,"full-length transcript, percent compared to all-rNTP control",[2]; [9],3%
same,"full-length transcript, percent compared to all-rNTP control",[2]; [10],19%
same,"full-length transcript, percent compared to all-rNTP control",[2]; [11],23%
same,"full-length transcript, percent compared to all-rNTP control",[2]; [12],9%
same,"full-length transcript, percent compared to all-rNTP control",[2]; [13],24%
same,"full-length transcript, percent compared to all-rNTP control",[2]; [14],6%
same,"full-length transcript, percent compared to all-rNTP control",[2]; [15],3%
same,"full-length transcript, percent compared to all-rNTP control",[2]; [16],84%
same,"full-length transcript, percent compared to all-rNTP control",[2]; [17],70%
same,"full-length transcript, percent compared to all-rNTP control",[2]; [18],28%
same,"full-length transcript, percent compared to all-rNTP control",[2]; [19],51%
same,percentage of incorporation compared to the all-RNA control,[1]; [5],2.3%
same,percentage of incorporation compared to the all-RNA control,[1]; [6],146.3%
"CSCO[C@@H]1[C@H](O)[C@@H](COP(=O)(O)OP(=O)(O)OP(=O)(O)O)O[C@H]1n1ccc(=O)[nH]c1=O [2′-O-MTM-UTP, 2′-O-methylthiomethyl-uridine-5 ′-triphosphate]",activity at 2000 µM,[3]; [22],64%
"CSCO[C@@H]1[C@H](O)[C@@H](CO)O[C@H]1n1cnc2c(=O)[nH]c(N)nc21 [2′-O—MTM—GTP, 2′-O-methylthiomethyl guanosine]","full-length transcript, percent compared to all-rNTP control",[2],6% and 3% and 1% and 4% and 2% and 0%
same,activity at 2000 µM,[3]; [22],3%
"CC(N)C(=O)NC1C(O)[C@@H](CO)O[C@H]1n1ccc(=O)[nH]c1=O (stereo partly drawn) [ala-2′-NH2—UTP, 2′-(N-alanyl) amino-2′-deoxy-uridine]",activity at 2000 µM,[3]; [22],2%
"O=c1ccn([C@@H]2O[C@H](COP(=O)(O)OP(=O)(O)OP(=O)(O)O)[C@@H](O)[C@H]2F)c(=O)[nH]1 [2′-F—UTP, 2′-deoxy-2′-fluoro-uridine triphosphate]","full-length transcript, percent compared to all-rNTP control",[2],100%
same,activity at 2000 µM,[3]; 1 h,100%
CC(=O)O[C@H]1C(=O)[C@@]2(C)[C@H]([C@H](OC(=O)c3ccccc3)[C@]3(O)C[C@H](OC(=O)[C@H](O)[C@@H](NC(=O)c4ccccc4)c4ccccc4)C(C)=C1C3(C)C)[C@]1(OC(C)=O)CO[C@@H]1C[C@@H]2O [paclitaxel],inhibition of tumor growth,BT-474 xenografts,35%
2′-dGTP,% ribo control,[3],3%
"NCCC(=O)N[C@@H]1[C@H](O)[C@@H](CO)O[C@H]1n1ccc(=O)[nH]c1=O [2′-β NH2-ala-UTP, 2′-(N-β-alanyl)amino-2′-deoxy uridine]",activity at 2000 µM,[3]; [22],3%
"Nc1ncnc2c1ncn2[C@@H]1O[C@H](COP(=O)(O)OP(=O)(O)OP(=O)(O)O)[C@@H](O)[C@H]1F [2′-F—ATP, 2′-deoxy-2′-fluoro-adenine triphosphate]","full-length transcript, percent compared to all-rNTP control",[2]; [8],227%
same,"full-length transcript, percent compared to all-rNTP control",[2]; [9],252%
same,"full-length transcript, percent compared to all-rNTP control",[2]; [10],98%
same,"full-length transcript, percent compared to all-rNTP control",[2]; [11],103%
same,"full-length transcript, percent compared to all-rNTP control",[2]; [12],100%
same,"full-length transcript, percent compared to all-rNTP control",[2]; [13],116%
same,"full-length transcript, percent compared to all-rNTP control",[2]; [14],288%
same,"full-length transcript, percent compared to all-rNTP control",[2]; [15],278%
same,"full-length transcript, percent compared to all-rNTP control",[2]; [16],471%
same,"full-length transcript, percent compared to all-rNTP control",[2]; [17],198%
same,"full-length transcript, percent compared to all-rNTP control",[2]; [18],317%
same,"full-length transcript, percent compared to all-rNTP control",[2]; [19],185%
same,percentage of incorporation compared to the all-RNA control,[1]; [5],4%
same,percentage of incorporation compared to the all-RNA control,[1]; [6],222.6%
"NC(Cc1ccccc1)C(=O)NC1C(O)[C@@H](CO)O[C@H]1n1ccc(=O)[nH]c1=O (stereo partly drawn) [phe-2′-NH2—UTP, 2′-(N-phenylalanyl)amino-2′-deoxy-uridine]","full-length transcript, percent compared to all-rNTP control",[2],8% and 6% and 10% and 12% and 7% and 4%
same,activity at 2000 µM,[3]; [22],1%
CC/C(=C(\c1ccccc1)c1ccc(OCCN(C)C)cc1)c1ccccc1 [tamoxifen],reduction of breast cancer incidence,[4],49%
"Nc1nc(N)c2ncn([C@@H]3O[C@H](CO)C(O)C3N)c2n1 (stereo partly drawn) [2′-NH2—DAP, 2′-deoxy-2′amino-2,6-diaminopurine riboside]","full-length transcript, percent compared to all-rNTP control",[2],0% and 1%
same,percentage of incorporation compared to the all-RNA control,[1],8.9* % and 9.6%
2′-deoxy-2′-amino-UTP [2′-NH2—UTP],% ribo control,[3],39%
"NO[C@@H]1[C@H](O)[C@@H](CO)O[C@H]1n1ccc(=O)[nH]c1=O [2′-O—NH2—UTP, 2′-O-amino-uridine]",activity at 2000 µM,[3]; [22],1%
"CSCO[C@@H]1[C@H](O)[C@@H](CO)O[C@H]1n1ccc(N)nc1=O [2′-O—MTM—CTP, 2′-O-methylthiomethyl cytidine]","full-length transcript, percent compared to all-rNTP control",[2],2% and 4% and 5% and 3% and 1%
same,percentage of incorporation compared to the all-RNA control,[1],5.9% and 5.1%
CO[C@@H]1[C@H](O)[C@@H](COP(=O)(O)OP(=O)(O)OP(=O)(O)O)O[C@H]1n1cnc2c(N)ncnc21 [2′-O—Me—ATP],"full-length transcript, percent compared to all-rNTP control",[2],0% and 2% and 1%
Nc1ccn([C@@H]2O[C@H](COP(=O)(O)OP(=O)(O)OP(=O)(O)O)[C@@H](O)[C@H]2O)c(=O)n1 [CTP],percentage of incorporation compared to the all-RNA control,[1]; [20],16.1%
same,percentage of incorporation compared to the all-RNA control,[1]; [21],100%
"CO[C@@H]1[C@H](O)[C@@H](COP(=O)(O)OP(=O)(O)OP(=O)(O)O)O[C@H]1n1cnc2c(=O)[nH]c(N)nc21 [2′-O—Me—GTP, 2′-O-methyl-guanosine-5′-Triphosphate]","full-length transcript, percent compared to all-rNTP control",[2],4% and 5% and 3% and 2%
same,activity at 2000 µM,[3]; 1 h,3%
